Results published in ChEMBL document CHEMBL5154889, “Development of Novel IP6K Inhibitors for the Treatment of Obesity and Obesity-Induced Metabolic Dysfunctions” (J Med Chem, 2022).
Active and inactive are the calls of the source. The rule behind the calls is not given here.

Assays:
[1] = biological target: T1, Inositol hexakisphosphate kinase 3 (Homo sapiens, UniProt Q96PC2); assay: Inhibition of N-terminal 6His-sumo-tagged recombinant human IP6K3 expressed in Escherichia coli assessed as inorganic phosphate release using InsP6 as substrate in presence of ATP measured after 60 to 120 mins by malachite green based colorimetric - DIPP1 coupled enzyme assay
T1 sequence (Q96PC2 whole entry): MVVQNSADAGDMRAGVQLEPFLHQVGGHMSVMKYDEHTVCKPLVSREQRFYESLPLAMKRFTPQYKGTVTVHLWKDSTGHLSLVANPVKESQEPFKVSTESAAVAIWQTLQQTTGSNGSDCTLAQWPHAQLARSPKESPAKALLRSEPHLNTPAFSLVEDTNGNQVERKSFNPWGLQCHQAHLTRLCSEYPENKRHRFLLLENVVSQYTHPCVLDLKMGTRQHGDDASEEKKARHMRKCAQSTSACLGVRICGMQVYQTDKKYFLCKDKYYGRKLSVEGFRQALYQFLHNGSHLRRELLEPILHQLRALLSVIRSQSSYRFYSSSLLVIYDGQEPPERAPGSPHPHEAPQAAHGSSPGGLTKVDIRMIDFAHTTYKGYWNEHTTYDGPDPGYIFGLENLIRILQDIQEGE

[2] = biological target: T2, Inositol hexakisphosphate kinase 2 (Homo sapiens, UniProt Q9UHH9); assay: Inhibition of N-terminal 6His-tagged/TEV cleavage site fused recombinant human IP6K2 expressed in Escherichia coli assessed as inorganic phosphate release using InsP6 as substrate in presence of ATP measured after 60 to 120 mins by malachite green based colorimetric - DIPP1 coupled enzyme assay
T2 sequence (Q9UHH9 whole entry): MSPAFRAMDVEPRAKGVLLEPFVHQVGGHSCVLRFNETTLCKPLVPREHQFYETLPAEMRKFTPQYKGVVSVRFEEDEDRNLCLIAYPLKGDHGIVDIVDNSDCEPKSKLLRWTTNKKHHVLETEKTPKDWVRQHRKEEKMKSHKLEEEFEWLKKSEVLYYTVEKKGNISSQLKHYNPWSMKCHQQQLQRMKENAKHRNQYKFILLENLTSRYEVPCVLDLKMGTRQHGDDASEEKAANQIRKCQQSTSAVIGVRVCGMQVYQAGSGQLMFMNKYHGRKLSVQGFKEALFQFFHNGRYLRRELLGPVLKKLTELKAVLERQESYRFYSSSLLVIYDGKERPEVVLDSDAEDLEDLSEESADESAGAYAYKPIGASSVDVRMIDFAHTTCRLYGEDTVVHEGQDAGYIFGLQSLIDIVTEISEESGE

[3] = biological target: T3, Inositol hexakisphosphate kinase 1 (Homo sapiens, UniProt Q92551); assay: Inhibition of N-terminal 6His-MBP-tagged recombinant human IP6K1 expressed in Escherichia coli assessed as inorganic phosphate release using InsP6 as substrate in presence of ATP measured after 60 to 120 mins by malachite green based colorimetric - DIPP1 coupled enzyme assay
Target sequence in this assay (Q92551 whole entry): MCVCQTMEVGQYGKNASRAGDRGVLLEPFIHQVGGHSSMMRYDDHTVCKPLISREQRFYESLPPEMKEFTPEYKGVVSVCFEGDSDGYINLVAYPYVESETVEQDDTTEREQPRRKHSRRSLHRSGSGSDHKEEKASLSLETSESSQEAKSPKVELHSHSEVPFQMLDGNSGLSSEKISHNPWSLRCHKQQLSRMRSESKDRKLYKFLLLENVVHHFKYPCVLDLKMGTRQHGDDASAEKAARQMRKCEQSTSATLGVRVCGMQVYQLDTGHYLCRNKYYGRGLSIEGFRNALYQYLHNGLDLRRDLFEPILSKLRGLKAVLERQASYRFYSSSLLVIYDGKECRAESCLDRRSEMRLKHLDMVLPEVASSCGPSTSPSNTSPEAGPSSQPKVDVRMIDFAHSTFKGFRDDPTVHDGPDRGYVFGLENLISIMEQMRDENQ

Homo sapiens = organism: Homo sapiens; assay: Selectivity ratio of IC50 for N-terminal 6His-sumo-tagged recombinant human IP6K3 expressed in Escherichia coli assessed as inorganic phosphate release using InsP6 as substrate in presence of ATP measured to IC50 for N-terminal 6His-MBP-tagged recombinant human IP6K1 expressed in Escherichia coli assessed as inorganic phosphate release using InsP6 as substrate in presence of ATP
Mus musculus [4] = assay: Anti-obesity activity in high fat diet-induced obesity C57BL6J mouse model assessed as reduction in inguinal-adipose tissue weight at 5 mg/kg, ip administered for 4 weeks; assay type: functional, organism-based
Mus musculus [5] = assay: Anti-obesity activity in high fat diet-induced obesity C57BL6J mouse model assessed as reduction in lean mass at 5 mg/kg, ip administered for 4 weeks; assay type: functional, organism-based
CYP2C9 = CYP2C9 (Homo sapiens, UniProt P11712); assay: Inhibition of CYP2C9 in human liver microsomes at 10 uM in presence of NADPH by LC-MS/MS analysis; assay type: ADME, Microsome
Mus musculus [6] = assay: Anti-obesity activity in high fat diet-induced obesity C57BL6J mouse model assessed as reduction in fat mass at 5 mg/kg, ip administered for 4 weeks; assay type: functional, organism-based
Mus musculus [7] = assay: Anti-diabetic activity in 5 hrs fasted C57BL6J mouse model of high fat diet-induced obesity assessed as improved blood glucose disposal at […], ip administered for 1 weeks by insulin tolerance test; assay type: functional, organism-based
Mus musculus [8] = assay: Anti-obesity activity in high fat diet-induced obesity C57BL6J mouse model assessed as reduction in epididymal-adipose tissue weight at 5 mg/kg, ip administered for 4 weeks; assay type: functional, organism-based
Mus musculus [9] = assay: Reduction in liver weight in C57BL6J mouse model of high fat diet-induced obesity at 2 mg/kg, ip administered for 4 weeks by H and E staining assay; assay type: functional, organism-based
Mus musculus [10] = assay: Reduction in hepatic steatosis in C57BL6J mouse model of high fat diet-induced obesity at 2 mg/kg, ip administered for 4 weeks by H and E staining assay; assay type: functional, organism-based
Mus musculus [11] = assay: Anti-obesity activity in high fat diet-induced obesity C57BL6J mouse model assessed as reduction in body weight at 5 mg/kg, ip administered for 4 weeks; assay type: functional, organism-based
[12] = AUClast in diet-induced obesity CD1 mouse at 5 mg/kg, ip measured up to 24 hrs post-dosing by LC-MS/MS analysis; assay type: ADME, organism-based; parameters: dose 5 mg/kg, time < 24 hrs, route ip; details: in vivo
Mus musculus [13] = assay: Anti-diabetic activity in 16 hrs fasted C57BL6J mouse model of high fat diet-induced obesity assessed as improved blood glucose disposal at 2 mg/kg, ip administered for 3 weeks by insulin tolerance test; assay type: functional, organism-based
[14] = biological target: Inositol-trisphosphate 3-kinase A (Homo sapiens) (UniProt P23677); assay: Inhibition of N-terminal 6His-tagged/TEV cleavage site fused recombinant human IP3KA (173 to 461 residues) expressed in Escherichia coli using [3H]-Ins91,4,5)P3 as substrate measured after 60 mins by HPLC analysis
[15] = AUClast in diet-induced obesity CD1 mouse model at 5 mg/kg, iv measured up to 24 hrs post-dosing by LC-MS/MS analysis; assay type: ADME, organism-based; parameters: dose 5 mg/kg, time < 24 hrs, route iv; details: in vivo
[16] = Clearance in diet-induced obesity CD1 mouse at 5 mg/kg, iv measured up to 24 hrs post-dosing by LC-MS/MS analysis; assay type: ADME, organism-based; details: in vivo
Mus musculus [17] = assay: Anti-diabetic activity in 16 hrs fasted C57BL6J mouse model of high fat diet-induced obesity assessed as reduction in pyruvate-induced gluconeogenesis at 2 mg/kg, ip administered for 4 weeks by pyruvate tolerance test; assay type: functional, organism-based
[18] = biological target: Death-associated protein kinase 1 (Homo sapiens) (UniProt P53355); assay: Inhibition of DAPK1 (unknown origin) at 1 uM relative to control
[19] = biological target: T1, Inositol hexakisphosphate kinase 3; assay: Inhibition of recombinant full length human IP6K3 assessed as inorganic phosphate release measured after 2 hrs by ADP-Glo Max assay
[20] = biological target: T3, Inositol hexakisphosphate kinase 1; assay: Inhibition of recombinant full length human IP6K1 assessed as inorganic phosphate release measured after 30 mins by ADP-Glo Max assay
Target sequence in this assay (Q92551 whole entry): as above

[21] = biological target: T3, Inositol hexakisphosphate kinase 1; assay: Inhibition of recombinant full length human IP6K1 in HCT-116 cells assessed as reduction in InsP7 level at 10 to 30 uM measured after 30 mins by toluidine blue staining based analysis; assay type: cell-based; details: dose 10-30 µM
Target sequence in this assay (Q92551 whole entry, looked up): as the sequence (Q92551 whole entry) above

[22] = biological target: T2, Inositol hexakisphosphate kinase 2; assay: Inhibition of recombinant full length human IP6K2 assessed as inorganic phosphate release measured after 30 mins by ADP-Glo Max assay

Chain of Inositol-trisphosphate 3-kinase A (Homo sapiens) (P23677 whole entry, the tested form may be a part): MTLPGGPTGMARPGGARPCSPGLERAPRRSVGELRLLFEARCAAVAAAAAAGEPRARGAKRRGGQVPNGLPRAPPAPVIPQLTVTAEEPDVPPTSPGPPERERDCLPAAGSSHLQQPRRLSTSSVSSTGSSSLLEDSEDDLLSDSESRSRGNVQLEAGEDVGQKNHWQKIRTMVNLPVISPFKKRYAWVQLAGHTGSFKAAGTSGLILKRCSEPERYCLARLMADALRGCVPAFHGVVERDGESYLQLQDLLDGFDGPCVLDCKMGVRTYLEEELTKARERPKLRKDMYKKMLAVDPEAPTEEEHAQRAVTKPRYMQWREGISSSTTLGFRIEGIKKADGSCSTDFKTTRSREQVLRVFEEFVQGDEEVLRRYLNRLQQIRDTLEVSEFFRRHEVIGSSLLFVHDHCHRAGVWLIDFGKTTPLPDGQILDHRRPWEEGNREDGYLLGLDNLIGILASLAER
Chain of Death-associated protein kinase 1 (Homo sapiens) (P53355 whole entry, looked up): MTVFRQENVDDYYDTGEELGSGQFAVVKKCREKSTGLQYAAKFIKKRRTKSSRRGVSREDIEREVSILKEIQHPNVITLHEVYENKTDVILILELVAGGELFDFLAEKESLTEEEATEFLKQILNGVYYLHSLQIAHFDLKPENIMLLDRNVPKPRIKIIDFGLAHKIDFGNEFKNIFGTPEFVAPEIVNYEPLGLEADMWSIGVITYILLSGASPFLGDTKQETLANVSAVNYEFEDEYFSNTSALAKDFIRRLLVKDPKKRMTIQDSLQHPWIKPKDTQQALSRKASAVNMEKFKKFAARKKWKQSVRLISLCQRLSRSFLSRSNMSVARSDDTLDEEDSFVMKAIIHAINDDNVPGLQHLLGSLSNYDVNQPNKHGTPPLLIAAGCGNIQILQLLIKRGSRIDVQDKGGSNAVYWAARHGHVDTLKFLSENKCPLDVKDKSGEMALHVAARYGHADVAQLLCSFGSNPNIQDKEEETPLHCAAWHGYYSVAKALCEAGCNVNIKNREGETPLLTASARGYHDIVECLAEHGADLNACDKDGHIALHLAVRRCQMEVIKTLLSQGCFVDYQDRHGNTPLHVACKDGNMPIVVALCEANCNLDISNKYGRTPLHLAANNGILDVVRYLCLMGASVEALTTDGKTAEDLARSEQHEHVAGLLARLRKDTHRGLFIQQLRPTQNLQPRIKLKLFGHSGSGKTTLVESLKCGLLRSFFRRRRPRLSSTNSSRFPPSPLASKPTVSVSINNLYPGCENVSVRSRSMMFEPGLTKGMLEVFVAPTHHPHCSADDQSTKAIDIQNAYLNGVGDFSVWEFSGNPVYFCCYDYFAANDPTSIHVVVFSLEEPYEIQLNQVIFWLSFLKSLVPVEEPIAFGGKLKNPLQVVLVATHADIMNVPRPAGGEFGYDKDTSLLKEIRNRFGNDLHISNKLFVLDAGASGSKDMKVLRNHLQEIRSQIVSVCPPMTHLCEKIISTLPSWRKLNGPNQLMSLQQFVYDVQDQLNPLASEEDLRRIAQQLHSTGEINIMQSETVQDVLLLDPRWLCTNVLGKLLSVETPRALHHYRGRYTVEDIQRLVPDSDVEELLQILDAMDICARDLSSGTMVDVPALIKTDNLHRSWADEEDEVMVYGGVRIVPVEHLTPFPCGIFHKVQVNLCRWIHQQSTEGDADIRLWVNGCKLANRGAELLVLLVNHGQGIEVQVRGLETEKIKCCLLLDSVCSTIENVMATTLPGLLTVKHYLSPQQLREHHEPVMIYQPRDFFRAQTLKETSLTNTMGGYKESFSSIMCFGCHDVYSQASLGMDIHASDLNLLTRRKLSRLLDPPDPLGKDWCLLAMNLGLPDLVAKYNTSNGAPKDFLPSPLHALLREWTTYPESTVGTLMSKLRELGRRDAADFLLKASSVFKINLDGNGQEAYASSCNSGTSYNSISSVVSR
Chain of CYP2C9 (P11712 whole entry): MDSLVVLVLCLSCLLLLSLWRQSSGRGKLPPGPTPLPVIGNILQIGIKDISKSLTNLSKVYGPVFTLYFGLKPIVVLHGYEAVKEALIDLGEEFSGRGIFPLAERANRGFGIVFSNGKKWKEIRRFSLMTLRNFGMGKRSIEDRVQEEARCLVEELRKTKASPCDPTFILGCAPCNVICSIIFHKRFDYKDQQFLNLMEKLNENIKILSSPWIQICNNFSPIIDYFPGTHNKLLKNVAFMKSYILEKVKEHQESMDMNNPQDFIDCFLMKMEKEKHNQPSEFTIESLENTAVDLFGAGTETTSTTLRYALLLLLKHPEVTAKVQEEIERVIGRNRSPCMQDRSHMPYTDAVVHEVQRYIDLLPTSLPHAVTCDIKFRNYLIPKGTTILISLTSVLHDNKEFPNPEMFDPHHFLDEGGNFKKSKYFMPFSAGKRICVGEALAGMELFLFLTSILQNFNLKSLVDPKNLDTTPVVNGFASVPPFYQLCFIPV

O=C(O)c1ccc2noc(-c3cccc(Oc4ncc(Cl)cc4Cl)c3)c2c1
IC50 [1]: 3090 nM

O=C(O)c1ccc2noc(-c3ccc(-c4ccncc4)cc3)c2c1
IC50 [1]: 670 nM

O=C(O)c1ccc2noc(-c3cccc(-c4ccccc4)c3)c2c1
IC50 [2]: 130 nM
IC50 [1]: 840 nM

O=C(O)c1ccc2noc(-c3cccc(Oc4ccccn4)c3)c2c1
IC50 [1]: 10900 nM

O=C(O)c1ccc2noc(-c3ccc(NC(=O)c4ccccc4)cc3)c2c1
IC50 [1]: 200 nM

O=C(O)c1ccc2noc(-c3cccc(NC(=O)C4CC4)c3)c2c1
IC50 [1]: 2810 nM

O=[N+]([O-])c1ccc(CNc2nc(NCc3cccc(C(F)(F)F)c3)nc3[nH]cnc23)cc1
IC50 [2]: 2000 nM
IC50 [1]: 14500 nM
IC50 [3]: 1000 nM

O=C(O)c1ccc2noc(-c3ccc(NC(=O)C4CCCC4)cc3)c2c1
IC50 [1]: 240 nM

CC(C)C(=O)Nc1ccc(-c2onc3ccc(C(=O)O)cc23)cc1
IC50 [2]: 820 nM
IC50 [1]: 210 nM

O=C(O)c1ccc2noc(-c3ccc(Oc4ncc(Cl)cc4Cl)cc3)c2c1
IC50 [1]: 2250 nM
Ratio IC50 (Homo sapiens): 5.2
IC50 [3]: 430 nM

CC(C)NC(=O)c1ccc(-c2onc3ccc(C(=O)O)cc23)cc1
IC50 [2]: 350 nM
IC50 [1]: 340 nM

O=C(O)c1ccc2noc(-c3cccc(Oc4ccccc4)c3)c2c1
IC50 [1]: 850 nM

O=C(O)c1ccc2noc(-c3ccc(N4CCCCC4)cc3)c2c1
IC50 [1]: 1790 nM

O=C(O)c1ccc2noc(-c3ccccc3)c2c1
IC50 [1]: 2690 nM

O=C(O)c1ccc2noc(-c3ccc(-c4ccccc4)cc3)c2c1
Activity (Mus musculus [4]): Active
Activity (Mus musculus [5]): Active
inhibition at 10 µM (CYP2C9): 36%
Activity (Mus musculus [6]): Active
Activity (Mus musculus [7]): Active
Activity (Mus musculus [8]): Active
Activity (Mus musculus [9]): Active
Activity (Mus musculus [10]): Active
Activity (Mus musculus [11]): Active
AUClast [12]: 2527 ng·h/mL
Activity (Mus musculus [13]): Active
inhibition [14]: Active
AUClast [15]: 6054 ng·h/mL
clearance [16]: 13.7 mL/min/kg
Activity (Mus musculus [17]): Active
inhibition [18]: 31%

Cc1cccc(-c2onc3ccc(/C=C/C(=O)O)cc23)c1
IC50 [1]: 3590 nM

O=C(O)c1ccc2noc(-c3ccc(NC(=O)c4ccncn4)cc3)c2c1
IC50 [1]: 430 nM

O=C(O)c1ccc2noc(-c3ccc(Oc4ccccc4)cc3)c2c1
IC50 [1]: 550 nM

Cc1cccc(-c2onc3ccc(C(=O)O)cc23)c1
IC50 [1]: 1410 nM

O=C(O)c1ccc2noc(-c3cccc(C(F)(F)F)c3)c2c1
IC50 [1]: 4620 nM

O=C(O)c1ccc2noc(-c3ccc(N4CCCC4=O)cc3)c2c1
IC50 [1]: 2170 nM

O=C(O)/C=C/c1ccc2noc(-c3ccc(Oc4ccccc4)cc3)c2c1
IC50 [1]: 760 nM

O=C(O)/C=C/c1ccc2c(-c3ccccc3)onc2c1
Ratio IC50 (Homo sapiens): 3.6

O=C(O)c1ccc2noc(-c3ccc(Cc4ccccc4)cc3)c2c1
IC50 [1]: 1290 nM

O=C(O)c1ccc2c(c1)C1(CCN(C(=O)c3ccc(Cl)cc3)CC1)C(=O)N2
IC50 [19]: 8 nM
IC50 [20]: 27 nM
inhibition [21]: Active
IC50 [22]: 25 nM

CN(C)C(=O)/C=C/c1ccc2noc(-c3ccccc3)c2c1
IC50 [1]: > 100000 nM
Ratio IC50 (Homo sapiens): > 3.4

Cc1cc(C)cc(-c2onc3ccc(C(=O)O)cc23)c1
IC50 [1]: 2440 nM

O=C(O)/C=C/c1ccc2noc(-c3ccc(OC(F)(F)F)cc3)c2c1
IC50 [1]: 8370 nM

O=C(O)/C=C/c1ccc2noc(-c3ccc(-c4ccccc4)cc3)c2c1
IC50 [1]: 200 nM
